# Like-named read-outs stand apart in the source and are kept apart here.
# Experiments:
# Type in all cases: in vivo, human
# bee stings = details: both hands stung, 500 μg/gr cream once to the other hand, about 10 minutes after sting
# Protocol: (§1) The method of the invention has been carried out with respect to a number of skin disorders. The patients were treated with one of two peptides, each at a concentration of 50 μg/gr cream (unless otherwise indicated):
# (§2) The cream was manufactured by Amiga LTD, Israel, and contains the following components:
# 3. A person was stung by a bee.
# 4. person four was stung by bees on both hands.
# 5. person three was stung by bees on both hands.
# itching = details: person
# Protocol: as §1, §2
# 1. A person suffered from a strong itching sensation on the skin all over the body for no apparent reason.
# 2. A person suffered from a red rash and itching sensation on their breast. ZEP4 (500 μg/gr cream) was applied twice in a period of 2 hours. • Results: relief from itching within 10 minutes.
# 3. A person suffered from a strong itching sensation in the lower limbs which sometimes spread to the abdomen and back. […] I. Skin Infection
# psoriasis = details: person
# Protocol: as §1, §2
# 1. A person suffered from intermittent psoriasis on their head over many years. […] The patient believes that the frequency of the outbreaks has been reduced.
# 2. A person suffered from psoriasis on the hands. […] The patient believes that a 20% improvement has occurred over 2 weeks.
# 3. A person suffered from psoriasis in the anus.
# 4. A person suffered from extensive psoriasis at various locations. ZEP3 (500 μg/gr cream) was applied to the sores as needed. • Results: the itching ceased within 12 hours.
# 5. A person suffered from chronic psoriasis on the elbow.
# 6. A person suffered from severe psoriasis at various locations. They regularly went for treatments to the Dead Sea in Israel.
# mosquito bites = system: mosquito bites
# Protocol: as §1, §2
# 8. males and four females suffered from mosquito bites. […]
# 9. 3 subjects suffering from mosquito bites were treated with ZEP3.
# flea bites = system: flea bites
# Protocol: as §1, §2
# 1. person two was bitten by fleas on various occasions, resulting in an itching sensation. […] The ointment was reapplied after 6 hours.
# 2. person one who is very sensitive to flea bites was bitten by fleas, resulting in an itching sensation. […] The ointment should be reapplied after 12 hours.
# Herpes zoster = details: person, 50 μg/gr cream
# Protocol: as §1, §2
# 1. A person was diagnosed with Herpes zoster (shingles), which appeared as a painful, circumferential rash in the abdominal area. The patient had been on antibiotics, with no improvement.
# 2. A person was diagnosed with Herpes zoster, which appeared as painful lesions with skin edema on the mid back area, appearing several times a year. […] Decrease in the skin rash and the degree of the sore and swelling and a shortening of the time of recovery (healing).
# Varicella = details: person, 50 μg/gr cream
# Protocol: as §1, §2
# 3. A person was diagnosed with severe Varicella, which appeared all over the body. The patient had severe itching and skin peeling. No commercial remedy helped. Initially, ZEP3 was topically applied to the hand, with improvement and relief within 24 hours. […] After 10 days, there was no sign of the disease nor were there any future complications.
# burns = system: burns
# Protocol: as §1, §2
# 1. A person was lightly burned on the back of the hand which touched a very hot object. ZEP4 was immediately applied to the burn site. • Results: the burn mark disappeared within 1 hour. No additional treatments were necessary.
# 2. A person was severely burned by boiling water on the palm of the hand. […] At the end of 2 weeks there was no sign of the burn, nor thereafter.
# 3. person two was lightly burned on their finger from boiling oil. […] No further treatments were necessary.
# 5. A person was burnt on their hand from an oven. […] The burn took on a light brown color.
# 6. 4 light burn cases, three from touching a hot surface and one from a chemical substance in a laboratory, were treated with ZEP3.
# 8. person three with irritated skin on the hand due to the rubbing of a watch band. The irritated skin came into contact with a chemical substance (used as a disinfectant). A severe redness developed similar to a burn, and a strong itching feeing. […] D. Oral Cavity
# vaginal herpes = details: female over 40, lesions on outer genital area; 50 μg/gr cream daily
# Protocol: as §1, §2
# 4. A person over 40 suffered from advance vaginal herpes, with numerous lesions on the outer genital area and pronounced itching and swelling.
# radiation burns = details: person two after mastectomy, severe radiation burns; 500 μg/gr cream several times per day
# Protocol: as §1, §2
# 4. A person with breast cancer received radiation treatment. The person suffered from radiation burns in a large skin area with blisters and open wounds. ZEP4 was applied directly to the wounds over a period of 12 days, 1-2 times per day. • Results: an immediate (˜1 minute) ease in the itching and burning sensation.
# 7. person two with breast cancer after mastectomy received radiation treatment. The person suffered from severe radiation burns.
# skin infection = system: skin infection
# Protocol: as §1, §2
# 1. person two suffered from an infection on the wrist of the left hand, apparently an allergic reaction to a watch band. Large spots appeared around the wrist accompanied by redness.
# 2. person three suffered from an infection on the wrist of the left hand, apparently an allergic reaction to a watch band. Large spots appeared around the wrist accompanied by redness and itching.
# 3. 2 cases of infected skin wounds.
# [1] = chronic psoriasis on elbow, 500 μg/gr cream
# [2] = intermittent psoriasis on head, 500 μg/gr cream once or twice a day
# [3] = abdominal rash, 2-3 times a day
# [4] = entire body twice a day for two weeks
# [5] = person three, wrist infection, allergic reaction to watch band, 500 μg/gr cream several times a day
substance,measurement,setting,value
pGLU-ASN-TRP-LYS-C8 [ZEP3],clinical outcome,bee stings; person four,the swelling shrunk and the redness decreased to an identical degree on each hand
same,clinical outcome,bee stings; person three,the swelling shrunk and the redness decreased to an identical degree on each hand
same,clinical outcome,"itching; strong itching all over the body, 500 μg/gr cream a number of times","immediate relief from itching, which ceased"
same,clinical outcome,"itching; strong itching in lower limbs, 500 μg/gr cream as needed",immediate relief
same,clinical outcome,psoriasis; [1],the flaking of the skin disappeared and the normal skin appearance returned
same,time until itching terminated,psoriasis; [1],2 h
same,time until itching ceased,"psoriasis; extensive psoriasis, 500 μg/gr cream as needed",≤ 12 h
same,clinical outcome,psoriasis; [2],the disease disappeared
same,time to relief,psoriasis; [2],10 to 20 min
same,time until relief is felt,"psoriasis; psoriasis in the anus, (500 μg/gr cream) once a day",4 days
same,clinical outcome,"psoriasis; psoriasis in the anus, (500 μg/gr cream) once a day, stopped several days, repeated for 4 days",the psoriasis disappeared
same,clinical outcome,"psoriasis; psoriasis on hands, 500 μg/gr cream once a day",feels relief; the skin is pleasant feeling and not itchy
same,improvement as believed by the patient,"psoriasis; psoriasis on hands, 500 μg/gr cream once a day, over 2 weeks",20%
same,clinical outcome,"mosquito bites; 3 subjects, 50 μg/gr cream",found to be therapeutic both for the itching and for the healing
same,clinical outcome,"mosquito bites; two males and four females, 30-57 years old, (500 μg/gr cream) as needed",an immediate relief from the itching sensation was felt
same,clinical outcome,"flea bites; person one very sensitive to flea bites, 50 μg/gr cream",almost immediate cessation of the itching sensation
same,clinical outcome,"flea bites; person two, 50 μg/gr cream several times to bite location",immediate cessation of the itching sensation
same,clinical outcome,Herpes zoster; [3],a decrease in the skin redness and the degree of the swelling and itching
same,time to improvement in the rash,Herpes zoster; [3],2 to 10 min
same,clinical outcome,"Herpes zoster; lesions with skin edema on mid back, applied 4-5 times",reduced skin edema and an increase in the intervals between attacks. Decrease in the skin rash and the degree of the sore and swelling and a shortening of the time of recovery (healing)
same,clinical outcome,Varicella; [4],shortening the time of recovery (healing)
same,time to decrease in the skin rash and the degree of the sore and swelling,Varicella; [4],10 to 20 min
same,time until no sign of the disease,Varicella; [4],10 days
same,time to improvement and relief,Varicella; initial application to the hand,≤ 24 h
same,clinical outcome,"burns; 4 light burn cases (three hot surface, one chemical substance), 50 μg/gr cream",found to be therapeutic both for the pain and for the healing
same,clinical outcome,"burns; person three, irritated skin on hand contacted a disinfectant, burn-like redness and itching, ZEP4 and ZEP3 each 500 μg/gr cream",immediate relief from the redness and itching
same,clinical outcome,vaginal herpes,"the redness and swelling decreased, and the lesions healed"
same,clinical outcome,radiation burns,felt immediate relief
same,clinical outcome,"skin infection; 2 cases of infected skin wounds, 50 μg/gr cream",aided in the healing of the wounds
same,clinical outcome,skin infection; [5],immediate relief from the itching
same,time to decrease in redness,skin infection; [5],≤ 24 h

# — patent publication US9012397B2 (priority 2011, dated 2015)
